# Laboratory results as given in PubChem BioAssay (NCI).
#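 1) Cells in 96-well plates. 2) Compound, 48 h, 5 concentrations. 3) Linear interpolation between surrounding doses. 4) Unreached endpoint = highest concentration. TGI: total growth inhibition.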
# Columns and labels:
# Assay in all cases: growth of human tumour cells (NCI), 48 h
# LXFL 529 NSCLC = system: LXFL 529 NSCLC
# RPMI-8226 leukemia = system: RPMI-8226 leukemia
# UO-31 renal = system: UO-31 renal
# HCT-116 colon = system: HCT-116 colon
# HCC-2998 colon = system: HCC-2998 colon
# SK-MEL-28 melanoma = system: SK-MEL-28 melanoma
# HT29 colon = system: HT29 colon
# SNB-78 CNS = system: SNB-78 CNS
# M19-MEL melanoma = system: M19-MEL melanoma
# NCI-H226 lung = system: NCI-H226 lung
# CAKI-1 renal = system: CAKI-1 renal
# SF-539 CNS = system: SF-539 CNS
# DMS 273 small cell lung = system: DMS 273 small cell lung
# MOLT-4 leukemia = system: MOLT-4 leukemia
# SK-OV-3 ovarian = system: SK-OV-3 ovarian
# MALME-3M melanoma = system: MALME-3M melanoma
# HOP-92 NSCLC = system: HOP-92 NSCLC
# UACC-257 melanoma = system: UACC-257 melanoma
# HL-60(TB) leukemia = system: HL-60(TB) leukemia
# OVCAR-8 ovarian = system: OVCAR-8 ovarian
# COLO 205 colon = system: COLO 205 colon
# OVCAR-5 ovarian = system: OVCAR-5 ovarian
# SN12C renal = system: SN12C renal
# NCI-H460 lung = system: NCI-H460 lung
# DLD-1 colon = system: DLD-1 colon
# SK-MEL-2 melanoma = system: SK-MEL-2 melanoma
# DMS 114 small cell lung = system: DMS 114 small cell lung
# A498 renal = system: A498 renal
# 786-0 renal = system: 786-0 renal
# ACHN renal = system: ACHN renal
# EKVX NSCLC = system: EKVX NSCLC
# KM12 colon = system: KM12 colon
# OVCAR-3 ovarian = system: OVCAR-3 ovarian
# SF-268 CNS = system: SF-268 CNS
# UACC-62 melanoma = system: UACC-62 melanoma
# RXF 393 renal = system: RXF 393 renal
# CCRF-CEM leukemia = system: CCRF-CEM leukemia
# K-562 leukemia = system: K-562 leukemia
# NCI-H23 lung = system: NCI-H23 lung
# SNB-19 CNS = system: SNB-19 CNS
# SW-620 colon = system: SW-620 colon
# SK-MEL-5 melanoma = system: SK-MEL-5 melanoma
# TK-10 renal = system: TK-10 renal
# NCI-H522 lung = system: NCI-H522 lung
# SNB-75 CNS = system: SNB-75 CNS
# IGROV1 ovarian = system: IGROV1 ovarian
# SR leukemia = system: SR leukemia
# U251 CNS = system: U251 CNS
# A549 NSCLC = system: A549 NSCLC
# SF-295 CNS = system: SF-295 CNS
# MDA-N = system: MDA-N
# MDA-MB-231 breast = system: MDA-MB-231 breast
# BT-549 breast = system: BT-549 breast
# DU-145 prostate = system: DU-145 prostate
# MDA-MB-435 = system: MDA-MB-435
# T-47D breast = system: T-47D breast
# NCI/ADR-RES ovarian = system: NCI/ADR-RES ovarian
# LOX IMVI melanoma = system: LOX IMVI melanoma
# HOP-62 NSCLC = system: HOP-62 NSCLC
# HCT-15 colon = system: HCT-15 colon
# MCF7 breast = system: MCF7 breast
# HS 578T breast = system: HS 578T breast
# OVCAR-4 ovarian = system: OVCAR-4 ovarian
# PC-3 prostate = system: PC-3 prostate
smiles,measurement,setting,value
C=C1C(=O)OC2C1CC[C@H](C)C13OC(=O)CC1[C@@]23C (stereo partly specified),TGI,LXFL 529 NSCLC,> 100 µM
same,TGI,RPMI-8226 leukemia,> 100 µM
same,TGI,UO-31 renal,> 100 µM
same,TGI,HCT-116 colon,> 100 µM
same,TGI,HCC-2998 colon,> 100 µM
same,TGI,SK-MEL-28 melanoma,> 100 µM
same,TGI,HT29 colon,> 100 µM
same,TGI,SNB-78 CNS,> 100 µM
same,TGI,M19-MEL melanoma,> 100 µM
same,TGI,NCI-H226 lung,> 100 µM
same,TGI,CAKI-1 renal,> 100 µM
same,TGI,SF-539 CNS,> 100 µM
same,TGI,DMS 273 small cell lung,> 100 µM
same,TGI,MOLT-4 leukemia,> 100 µM
same,TGI,SK-OV-3 ovarian,> 100 µM
same,TGI,MALME-3M melanoma,> 100 µM
same,TGI,HOP-92 NSCLC,> 100 µM
same,TGI,UACC-257 melanoma,> 100 µM
same,TGI,HL-60(TB) leukemia,> 100 µM
same,TGI,OVCAR-8 ovarian,> 100 µM
same,TGI,COLO 205 colon,> 100 µM
same,TGI,OVCAR-5 ovarian,> 100 µM
same,TGI,SN12C renal,> 100 µM
same,TGI,NCI-H460 lung,> 100 µM
same,TGI,DLD-1 colon,> 100 µM
same,TGI,SK-MEL-2 melanoma,> 100 µM
same,TGI,DMS 114 small cell lung,> 100 µM
same,TGI,A498 renal,> 100 µM
same,TGI,786-0 renal,> 100 µM
same,TGI,ACHN renal,> 100 µM
same,TGI,EKVX NSCLC,> 100 µM
same,TGI,KM12 colon,> 100 µM
same,TGI,OVCAR-3 ovarian,> 100 µM
same,TGI,SF-268 CNS,> 100 µM
same,TGI,UACC-62 melanoma,> 100 µM
same,TGI,RXF 393 renal,> 100 µM
same,TGI,CCRF-CEM leukemia,> 100 µM
same,TGI,K-562 leukemia,> 100 µM
same,TGI,NCI-H23 lung,> 100 µM
same,TGI,SNB-19 CNS,> 100 µM
same,TGI,SW-620 colon,> 100 µM
same,TGI,SK-MEL-5 melanoma,> 100 µM
same,TGI,TK-10 renal,> 100 µM
same,TGI,NCI-H522 lung,> 100 µM
same,TGI,SNB-75 CNS,> 100 µM
same,TGI,IGROV1 ovarian,> 100 µM
same,TGI,SR leukemia,> 100 µM
same,TGI,U251 CNS,> 100 µM
same,TGI,A549 NSCLC,> 100 µM
same,TGI,SF-295 CNS,> 100 µM
C=C1CCC2CC1[C@@H](C(=O)c1c[nH]c3ccccc13)NC2(C)C (stereo partly specified),TGI,RPMI-8226 leukemia,> 37.5 µM
same,TGI,UO-31 renal,> 37.5 µM
same,TGI,HCT-116 colon,> 37.5 µM
same,TGI,HCC-2998 colon,32.4 µM
same,TGI,SK-MEL-28 melanoma,> 37.5 µM
same,TGI,HT29 colon,> 37.5 µM
same,TGI,MDA-N,> 37.5 µM
same,TGI,NCI-H226 lung,> 37.5 µM
same,TGI,CAKI-1 renal,> 37.5 µM
same,TGI,SF-539 CNS,> 37.5 µM
same,TGI,MDA-MB-231 breast,> 37.5 µM
same,TGI,MOLT-4 leukemia,> 37.5 µM
same,TGI,MALME-3M melanoma,> 37.5 µM
same,TGI,HOP-92 NSCLC,31 µM
same,TGI,UACC-257 melanoma,> 37.5 µM
same,TGI,BT-549 breast,> 37.5 µM
same,TGI,HL-60(TB) leukemia,> 37.5 µM
same,TGI,OVCAR-8 ovarian,> 37.5 µM
same,TGI,COLO 205 colon,> 37.5 µM
same,TGI,OVCAR-5 ovarian,> 37.5 µM
same,TGI,SN12C renal,> 37.5 µM
same,TGI,DU-145 prostate,> 37.5 µM
same,TGI,MDA-MB-435,> 37.5 µM
same,TGI,NCI-H460 lung,> 37.5 µM
same,TGI,SK-MEL-2 melanoma,> 37.5 µM
same,TGI,T-47D breast,> 37.5 µM
same,TGI,A498 renal,> 37.5 µM
same,TGI,786-0 renal,> 37.5 µM
same,TGI,ACHN renal,> 37.5 µM
same,TGI,EKVX NSCLC,> 37.5 µM
same,TGI,KM12 colon,> 37.5 µM
same,TGI,OVCAR-3 ovarian,> 37.5 µM
same,TGI,SF-268 CNS,> 37.5 µM
same,TGI,NCI/ADR-RES ovarian,> 37.5 µM
same,TGI,LOX IMVI melanoma,> 37.5 µM
same,TGI,UACC-62 melanoma,> 37.5 µM
same,TGI,RXF 393 renal,> 37.5 µM
same,TGI,CCRF-CEM leukemia,> 37.5 µM
same,TGI,K-562 leukemia,> 37.5 µM
same,TGI,NCI-H23 lung,> 37.5 µM
same,TGI,SW-620 colon,> 37.5 µM
same,TGI,SK-MEL-5 melanoma,> 37.5 µM
same,TGI,HOP-62 NSCLC,> 37.5 µM
same,TGI,HCT-15 colon,> 37.5 µM
same,TGI,TK-10 renal,> 37.5 µM
same,TGI,NCI-H522 lung,> 37.5 µM
same,TGI,MCF7 breast,> 37.5 µM
same,TGI,SNB-75 CNS,> 37.5 µM
same,TGI,IGROV1 ovarian,> 37.5 µM
same,TGI,HS 578T breast,> 37.5 µM
same,TGI,OVCAR-4 ovarian,> 37.5 µM
same,TGI,PC-3 prostate,> 37.5 µM
same,TGI,SR leukemia,> 37.5 µM
same,TGI,U251 CNS,> 37.5 µM
same,TGI,A549 NSCLC,> 37.5 µM
same,TGI,SF-295 CNS,> 37.5 µM
